Experimental data as given in ChEMBL document CHEMBL1201862, “PubChem BioAssay data set” (2004).
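Grown in 96-well plates, cells were treated for 48 hours with each compound at five concentrations. Insufficient inhibition: endpoint recorded as highest concentration tested. At the GI50, growth is halved.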 Calls of active or inactive are those of the source. Rule as the data show it: active = GI50 up to about 1.1 µM and inactive = higher.

Tests used:
Test in all cases: NCI tumour cell line growth inhibition, 48 h
786-0 = tested on: 786-0
A549 = tested on: A549
ACHN = tested on: ACHN
CCRF-CEM = tested on: CCRF-CEM
EKVX = tested on: EKVX
HT-29 = tested on: HT-29
KM12 = tested on: KM12
NCI-H460 = tested on: NCI-H460
NCI-H522 = tested on: NCI-H522
OVCAR-5 = tested on: OVCAR-5
OVCAR-8 = tested on: OVCAR-8
SF-268 = tested on: SF-268
SNB-19 = tested on: SNB-19
TK-10 = tested on: TK-10
UACC-257 = tested on: UACC-257
UO-31 = tested on: UO-31
CAKI-1 = tested on: CAKI-1
SK-MEL-5 = tested on: SK-MEL-5
HCC 2998 = tested on: HCC 2998

Measured: GI50

Cc1cc2cc3ccccc3cc2c(=O)[nH]1
inactive: 786-0 > 10 µM | A549 > 10 µM | ACHN > 10 µM | CCRF-CEM > 10 µM | EKVX > 10 µM | HT-29 > 10 µM | KM12 > 10 µM | NCI-H460 > 10 µM | NCI-H522 > 10 µM | OVCAR-5 > 10 µM | OVCAR-8 > 10 µM | SF-268 > 10 µM | SNB-19 > 10 µM | TK-10 > 10 µM | UACC-257 > 10 µM | UO-31 > 10 µM

Cn1c(=O)c2c3ccccc3c(C(=O)c3ccccc3)n2c2ccccc21
inactive: 786-0 10.3 µM | A549 56.8 µM | ACHN 24 µM | CAKI-1 > 26.8 µM | CCRF-CEM 9.82 µM | EKVX > 89.3 µM | HT-29 3.63 µM | KM12 2.44 µM | NCI-H460 3.48 µM | NCI-H522 3.33 µM | OVCAR-5 17.3 µM | OVCAR-8 16.4 µM | SF-268 20 µM | SK-MEL-5 6.08 µM | SNB-19 > 43.3 µM | TK-10 > 43.7 µM | UACC-257 > 100 µM | UO-31 > 52.7 µM

CSC(=N)N1N=C2c3ccccc3CC[C@@H]2[C@@H]1c1ccccc1
inactive: 786-0 12.9 µM | A549 17.6 µM | ACHN 18.3 µM | CCRF-CEM 19.3 µM | EKVX 17.5 µM | HCC 2998 15 µM | HT-29 10.3 µM | KM12 14.4 µM | NCI-H460 13.2 µM | NCI-H522 14.2 µM | OVCAR-5 17.7 µM | OVCAR-8 15 µM | SF-268 22 µM | SNB-19 16.4 µM | TK-10 17 µM | UACC-257 18.5 µM | UO-31 9.64 µM

Cc1cc2c(=O)cc(-c3ccncc3)oc2c(C(=O)O)c1C
inactive: 786-0 > 100 µM | A549 > 100 µM | ACHN > 100 µM | CCRF-CEM > 100 µM | EKVX > 100 µM | HCC 2998 > 100 µM | HT-29 > 100 µM | NCI-H460 > 100 µM | OVCAR-5 > 100 µM | OVCAR-8 > 100 µM | SF-268 > 100 µM | SNB-19 > 100 µM | TK-10 > 100 µM | UACC-257 > 100 µM | UO-31 > 100 µM

COC(=O)C(=O)C(C(=O)C(=O)Nc1ccc([N+](=O)[O-])cc1)c1nc2ccccc2nc1O (stereo not drawn)
inactive: 786-0 > 100 µM | A549 > 100 µM | ACHN 55.2 µM | CAKI-1 53.2 µM | CCRF-CEM > 100 µM | HT-29 81.5 µM | KM12 57.3 µM | NCI-H460 > 100 µM | NCI-H522 > 100 µM | OVCAR-8 > 100 µM | SF-268 > 100 µM | SK-MEL-5 43.6 µM | SNB-19 > 100 µM | TK-10 > 100 µM | UACC-257 55.7 µM | UO-31 > 100 µM

Cc1cc(O)nc(CNC(=O)c2cccc(C(=O)NCc3cc(O)nc(C)n3)c2)n1
inactive: 786-0 > 100 µM | A549 > 100 µM | ACHN > 100 µM | CCRF-CEM > 100 µM | EKVX > 100 µM | HCC 2998 > 100 µM | HT-29 > 100 µM | KM12 > 100 µM | NCI-H460 > 100 µM | NCI-H522 > 100 µM | OVCAR-5 > 100 µM | OVCAR-8 > 100 µM | SF-268 > 100 µM | SK-MEL-5 > 100 µM | SNB-19 > 100 µM | TK-10 > 100 µM | UACC-257 > 100 µM | UO-31 > 100 µM

Cc1ccc(NC(=O)CC(=O)n2nc(-c3ccccc3)c(/N=N/c3ccc(Cl)cc3)c2-c2ccccc2)cc1
inactive: 786-0 21.1 µM | A549 28.2 µM | ACHN 27.6 µM | CAKI-1 > 100 µM | CCRF-CEM 24.4 µM | EKVX > 100 µM | HCC 2998 84.5 µM | HT-29 17.9 µM | KM12 36.5 µM | NCI-H460 40.3 µM | OVCAR-5 > 100 µM | OVCAR-8 26 µM | SF-268 > 100 µM | SK-MEL-5 > 100 µM | SNB-19 42.6 µM | TK-10 22.3 µM | UACC-257 33.8 µM | UO-31 > 100 µM

CC(=O)N1C(=O)C(=O)c2cc(Cl)ccc21
inactive: 786-0 > 100 µM | A549 > 100 µM | ACHN > 100 µM | CCRF-CEM > 10 µM | EKVX > 100 µM | HCC 2998 > 100 µM | HT-29 > 100 µM | KM12 > 100 µM | NCI-H460 > 100 µM | OVCAR-5 > 100 µM | OVCAR-8 > 100 µM | SF-268 > 100 µM | SK-MEL-5 > 100 µM | SNB-19 > 100 µM | TK-10 > 100 µM | UO-31 > 100 µM

C#C[C@]1(O)CCCC2=CC(=O)CC[C@@]21C
inactive: 786-0 > 100 µM | A549 > 100 µM | ACHN > 100 µM | CCRF-CEM > 100 µM | EKVX > 100 µM | HCC 2998 > 100 µM | HT-29 > 100 µM | KM12 > 100 µM | NCI-H460 > 100 µM | NCI-H522 > 100 µM | OVCAR-5 > 100 µM | OVCAR-8 > 100 µM | SF-268 > 100 µM | SK-MEL-5 > 100 µM | SNB-19 > 100 µM | TK-10 > 100 µM | UACC-257 > 100 µM | UO-31 > 100 µM

OC1CN(OC/C=C/c2ccccc2)CC(O)C1O (stereo not drawn)
inactive: 786-0 21.1 µM | A549 > 100 µM | ACHN > 100 µM | CAKI-1 > 100 µM | CCRF-CEM > 100 µM | EKVX > 100 µM | HCC 2998 > 100 µM | HT-29 > 100 µM | KM12 72.3 µM | NCI-H460 63.4 µM | OVCAR-5 > 100 µM | OVCAR-8 > 100 µM | SF-268 > 100 µM | SK-MEL-5 > 100 µM | SNB-19 > 100 µM | TK-10 > 100 µM | UACC-257 > 100 µM | UO-31 > 100 µM

NC(CCSCCF)C(=O)O (stereo not drawn)
inactive: 786-0 > 100 µM | A549 > 100 µM | ACHN > 100 µM | CAKI-1 > 100 µM | CCRF-CEM > 100 µM | EKVX > 100 µM | HT-29 > 100 µM | KM12 > 100 µM | NCI-H460 > 100 µM | NCI-H522 > 100 µM | OVCAR-5 > 100 µM | SF-268 > 100 µM | SNB-19 > 100 µM | TK-10 > 100 µM | UO-31 > 100 µM

C=C1CC(CCCl)(c2ccccc2)OC1=O (stereo not drawn)
inactive: 786-0 17.4 µM | A549 > 71.9 µM | ACHN 32.5 µM | CCRF-CEM 20 µM | EKVX > 44 µM | HCC 2998 35.7 µM | HT-29 33 µM | KM12 44.7 µM | NCI-H460 > 100 µM | NCI-H522 18.5 µM | OVCAR-5 > 100 µM | OVCAR-8 41.1 µM | SF-268 > 67 µM | SK-MEL-5 > 100 µM | SNB-19 > 78.7 µM | TK-10 > 47.5 µM | UACC-257 44.2 µM | UO-31 58.3 µM
